For the compound `O=[N+]([O-])c1cc2[nH]c(C(F)(F)F)nc2cc1Cl`, the logP (in general, a log measure of how a compound divides between an organic and an aqueous phase) worked out at 3.21.
For `CCCCCc1ccc(N)cc1`, the logD – broadly, the decadic logarithm of the distribution of all forms, ionised or not, between an organic phase and buffer at a given pH – (pH 7.4) amounted to 3.39.
As to `O=C(O)c1ccc2c(c1)OCCOCCOCCOCCOCCO2`, the logP was -0.28.
Same read-out and setting: next, `CN(C)/C=C/C#N`: 0.47.
Still for that read-out and setting: next, `FC1(F)C(F)(F)C(F)(F)C(F)(F)C(F)(F)C1(F)F`: 2.91.
Turning to `CN(C)CCNCCN`, for the setting “pH 13.0”, the logD was -0.92.
Consider `COC(=O)C(F)(F)F`, for which the logP was 0.6.
`CCOc1cccc2cccnc12`: for the setting “pH 7.4”, the logD came to 2.25.
As for `O=C(O)COc1cc(F)cc(I)c1`, the logP amounted to 2.42.
`Cn1cc2ccc([N+](=O)[O-])cc2n1` returned a pH-dependent lipophilicity (logD) (pH 7.4) of 1.76.
As to `O=C(N/N=C/c1ccc[nH]1)Nc1ccccc1`, the logP is 2.96.
The compound `O=C(O)CCCl` registered a logD (pH 1.0) of 0.41.
In the case of `O/N=C/c1ccc(Cl)cc1`, the log partition coefficient (logP) stood at 2.67.
For the setting “pH 7.4”, `CN1C(=O)CN=C(c2ccccc2F)c2c(F)cccc21` gave a logD of 2.41.
`N#Cc1ccccc1N` showed a logP of 1.4.
For `CCOC(=O)N(C)C`, the logP amounted to 0.89.
The compound `O/N=C/c1ccncc1` came in with a logP of 0.77.
The compound `CCN(CCO)c1ccccc1` had a logD (pH 7.4) of 2.1.
Consider `CC(=O)Oc1ccc(N)cc1`, for which the logP came out at 0.45.
On the same count and under the same terms, next, `O=C1c2ccccc2C(=O)N1c1ccccc1`: 2.4.
Regarding `O=C(CCn1ccnc1[N+](=O)[O-])NCCO`, the logP is -1.08.
Take `CNCCN(C)C`: the logP is -0.2.
Turning to `O=[N+]([O-])c1ccc(/C=N/O)cc1`, the logP amounted to 1.95.
For the compound `COC(=S)NCCn1c([N+](=O)[O-])cnc1C`, for the setting “pH 7.4”, the logD came to 1.09.
Under “pH 13.0”, `CCOC(OCC)OCC` had a logD of 1.2.
As for `Cc1ccc(-c2noc(C)n2)cc1`, the logP was 2.74.
The compound `Cc1cscn1` had a log partition coefficient (logP) of 0.97.
Compound `CCCCC(NC(Cc1ccccc1)C(=O)N1CCC(OCOC)CC1)C(=O)NC(CC1CCCCC1)C(O)CC(C(=O)NCCNC(N)=NC#N)C(C)C` (stereo unspecified) registered a logP of 4.14.
On the same count and under the same terms, next, `NC(=O)CCNC(=O)C(F)(F)Cn1cncc1[N+](=O)[O-]`: -0.95; `Nc1n[nH]c(Cc2ccc([N+](=O)[O-])o2)n1`: 1.28.
The same measure, in the same setting: for `CCC(C)(C)Cl` the value was 2.52; for `O=C1C=C(Br)C(=O)c2ccccc21`, 2.44.
Under “pH 13.0”, `Cc1cc(Cc2cnc(N)nc2N)cc(C(C)C)c1N` came in with a log distribution coefficient (logD) of 1.77.
In turn, `O=C1C(=O)c2ccccc2-c2ccccc21` gave a logP of 2.52.
Regarding `O=[N+]([O-])c1ncn(CC(F)(F)CO)n1`, the pH-dependent lipophilicity (logD) (pH 7.4) is -0.21.
`c1ccc(OP2OCCO2)cc1`: the logP worked out at 1.42.
As for `CC(C)(C)C(=O)c1ccccc1`, the log partition coefficient (logP) was 3.
In turn, `N#Cc1cccc2cccnc12` returned a logD (pH 7.4) of 1.39.
Regarding `N#Cc1ccncc1C#N`, the logP came out at 0.24.
Same read-out and setting: next, `O=C(COC(=O)c1ccccc1)NC1CCCCC1`: 2.81.
The compound `C[C@@H]([C@H](O)c1ccccc1)N(C)C` came in with a logD (pH 11.0) of 1.7.
In turn, `Cc1cn([C@@H]2O[C@H](CO)[C@@H](O)[C@H]2O)c(=O)nc1N` returned a pH-dependent lipophilicity (logD) (pH 7.0) of -2.01.
`CN(C)N=Nc1nccs1` came in with a logP of 1.27.
For the setting “pH 7.4”, `O=C1CN=C(c2ccccc2F)c2cc(Br)ccc2N1` registered a logD of 2.98.
For `CCCCSP(=O)(SCCCC)SCCCC`, the logP is 3.23.
The same measure, in the same setting: next, `c1ccc(-c2cnc(-c3ccccc3)o2)cc1`: 4.67.
Same read-out and setting: next, `CNC(=S)NNc1ccccc1`: 1.17.
Regarding `O=C1C=CC(=O)N1c1ccccc1`, the logP is 1.09.
In turn, `CSC(=S)Nc1ccc(Cl)c(Cl)c1` came in with a logP of 4.23.
On the same count and under the same terms, for `O=[N+]([O-])c1ccc(/C=C/c2ncc[nH]2)o1` the value was 1.32; for `Cc1ccno1`, 0.45; for `O=[N+]([O-])Nc1ccccn1`, -1.02.
Compound `CCCOCCN(C(=O)CCl)c1c(CC)cccc1CC` returned a log partition coefficient (logP) of 4.08.
`Cc1cc(CCCCCCCOc2ccc(C3=NCCO3)cc2)on1` gave a pH-dependent lipophilicity (logD) (pH 7.4) of 4.79.
For the compound `Cn1cccc1C=NNC(=O)Nc1ccccc1`, the logP came out at 2.71.
The compound `CC(C)(C)C(O)(CCc1ccc(Cl)cc1)Cn1cncn1` (stereo unspecified) yielded a logP of 3.7.
The same measure, in the same setting: next, `C1=COCCC1`: 0.69.
`OCc1ccc2cccnc2c1` showed a logD (pH 7.4) of 1.29.
Turning to `COc1ccccc1NC(=O)Nc1ccccc1OC`, the logP stood at 2.98.
Same read-out and setting: next, `CN1CCCC1`: 0.92.
`Cc1nc([N+](=O)[O-])cn1COCCS(C)(=O)=O` yielded a pH-dependent lipophilicity (logD) (pH 7.4) of -0.84.
`OCC=CCO`: the logP is -0.81.
On the same count and under the same terms, for `C=CCOC(C)=O` the value was 0.97; for `Nc1cc(Cl)c(Cl)cc1N`, 2; for `NNP(=O)(Oc1ccccc1)Oc1ccccc1`, 1.51.
The same measure, in the same setting: next, `CC1(O)CCCCC1`: 1.33.
Turning to `Cc1ccnc2ccccc12`, the pH-dependent lipophilicity (logD) (pH 7.4) amounted to 2.61.
`Cn1c(=O)sc2ccccc21`: the logP was found to be 1.98.
Still for that read-out and setting: next, `N#CC1CC1`: 0.29.
`CN1C(=O)CN=C(c2ccccc2C(F)(F)F)c2cc([N+](=O)[O-])ccc21` returned a pH-dependent lipophilicity (logD) (pH 7.4) of 2.45.
Turning to `CNC(=O)c1cccc2cccnc12`, the logD (pH 7.4) came out at 1.87.
Regarding `O/N=C/c1ccccc1`, the lipophilicity (logP) was found to be 1.85.
The same measure, in the same setting: for `Fc1cccc(F)n1` the value was 1.17; for `CCCCCCCCCCCCCCc1cccc(N2C(N)=NC(N)=NC2(C)C)c1`, 3.64; for `COc1cccc(N(C)C(=S)Oc2cccc(C(C)(C)C)c2)n1`, 5.18.
`OC[C@H]1O[C@@H](n2cnc3c2NC=NC[C@H]3O)C[C@@H]1O` displayed a logD (pH 7.4) of -2.09.
With `COC(=O)Nc1c(C)cccc1C`, the lipophilicity (logP) worked out at 1.69.
Take `CN(C)C(=S)NN`: the log partition coefficient (logP) is -0.3.
The compound `COC(=O)c1ccc(NC(C)=O)cc1` yielded a pH-dependent lipophilicity (logD) (pH 7.0) of 1.64.
With `N#CCC#N`, the logP was -0.5.
For `COc1cccc2ccccc12`, the logP is 3.63.
For `CCOC(CC)(OCC)OCC`, under “pH 13.0”, the logD came to 1.97.
Turning to `CCSC`, the logP was found to be 1.54.
Compound `Nc1ccc(Cl)c([N+](=O)[O-])c1` gave a logP of 2.06.
Still for that read-out and setting: next, `COC=O`: 0.03; `NC(=O)Cc1cccs1`: 0.33.
Turning to `C=C(C)CN(CC)c1c([N+](=O)[O-])cc(C(F)(F)F)cc1[N+](=O)[O-]`, the log partition coefficient (logP) stood at 5.11.
Still for that read-out and setting: next, `C=CCC`: 2.4.
Still for that read-out and setting: next, `CCc1cccnc1`: 1.66; `CCON=C(OC(=O)c1ccccc1)c1c(OC)ccc(Cl)c1OC`: 2.4.
The same measure, in the same setting: for `COC(=O)c1cc(S(N)(=O)=O)ccc1SCCCO` the value was 0.78.
`CC(C)(C)C#N` displayed a pH-dependent lipophilicity (logD) (pH 1.0) of 1.08.
On to `CN(C)C(=O)C12CC3CC(CC(C3)C1)C2`, for which the lipophilicity (logP) was found to be 2.55.
On the same count and under the same terms, for `O=S(=O)(CCl)c1ccccc1` the value was 1.24.
Take `O=[N+]([O-])c1cn(Cc2ccccc2)cn1`: the log distribution coefficient (logD) (pH 7.4) worked out at 1.36.
On the same count and under the same terms, next, `Nc1ccc2nc3ccccn3c2n1`: 1.38.
The compound `COc1ccc2cc([C@H](C)C(=O)OCC(=O)N(CCO)CCO)ccc2c1` yielded a logP of 1.7.
On the same count and under the same terms, for `COc1ccc(C(C)=O)c(OC)c1OC` the value was 1.63.
The same measure, in the same setting: next, `Cc1cccc(C)c1N`: 1.84; `CCc1cccc(C)c1NC(=O)OC(C)C`: 2.52.
On to `CS(=O)(=O)N1C(=O)c2ccc(N)cc2C1=O`, for which the logP came to 0.8.

For the origin of these results see the SangsterLogP compilation.
